Tests used:
MEFs = assay: ATP measurement (Cell titer-Glo luminescence) in MEFs; type: cell-based, mouse
Description: 20×104 MEFs were seeded in 100 µl of 5% FCS DMEM culture media ON in opaque 96 well plates. After, 100 ul of Cell titer-Glo luminiscence ATP reconstituted buffer and substrate (Promega, Cat. No. G7570) was added to each well and Luminiscence was measured after 10 minutes following manufacturer instructions. A standard curve with ATP was performed using the same kit and following manufacturer instructions.

Flt3L-bmDC = assay: ZENITH: protein synthesis (puromycin incorporation, flow cytometry) in Flt3L-bmDC subsets, WT and PERK KO; type: cell-based, mouse; settings: short 2-DG treatment; DC subsets from WT PERKflox/flox and CD11c-CRE PERKflox/flox (PERK KO)
Description: Mouse splenocytes from WT C57BL/6J (Jackson) or PERK KO C57BL/6J background mice (Zhang et al., 2002) were cultured in DMEM containing 5% of Fetal Calf Serum (FCS) and 50 μM of 2-Mercaptoethanol (Mouse cells culture media, MCCM) at 37° C. 5% of CO2 GM-CSF BM-derived dendritic cells (GM-bmDCs) were differentiated in vitro from the bone marrow of 6-8-week-old male mice, using GM-CSF, produced by J558L cells. Bone marrow progenitors were plated at 0.8×10^6 cells/ml, 5 ml/well in 6-well plates, and cultivated with RPMI (GIBCO), 5% FCS (Sigma-Aldrich), 20 μg/ml gentamycin (Sigma-Aldrich), 50 μM β-mercaptoethanol (VWR), and GM-CSF. The medium was replaced every 2 days; BM-derived DCs were used for experiments at day 6. Similarly, FLT3L BM-derived dendritic cells (FLT3L-bmDCs) were differentiated by adding FLT3L to RPMI, 10% of Fetal Calf Serum (FCS) and 50 μM of 2-Mercaptoethanol (Mouse cells culture media, MCCM) during 6 days at 37° C. 5% of CO2. To obtain splenocytes, eight weeks old wild type C57BL/6J mice were sacrificed by cervical dislocation and splenectomized. Single cells suspentions from the spleens were generated and cultured in MCCM as previously described. […]
Flow cytometry was conducted using BD LSR II and BD LSR Fortessa X-20 machine (BD Biosciences™) and data were analyzed with FlowJo (Tree Star™) and/or Cytobank. […]

C[C@@H]1C[C@@H]([C@H](O)CC2CC(=O)NC(=O)C2)C(=O)[C@@H](C)C1 [CHX, Cycloheximide]
pool of ATP (MEFs; MEFs, added on top of Oligo+2-DG, 5 minutes of treatment, compared to Oligo+2-DG treatment (Co), FIG. 2A): significantly higher

CC[C@H]1/C=C/C=C/C[C@@H](C)[C@H](O)[C@@](C)(O)C(=O)[C@@H](C)[C@H](O)[C@@H](C)C(=O)[C@@H](C)[C@H](O)[C@@H](C)/C=C/C(=O)O[C@@H]2[C@H](C)[C@H](CC1)O[C@]1(CC[C@H](C)[C@H](C[C@@H](C)O)O1)[C@H]2C [Oligomycin]
levels of ATP (MEFs; MEFs treated 20-30 minutes with the metabolic inhibitor, FIGS. 3A and 3B): unchanged

O=CC[C@@H](O)[C@H](O)[C@H](O)CO [2-DG, 2-Deoxy-D-Glucose]
protein synthesis in response to 2-DG (Flt3L-bmDC): decrease protein synthesis

Source: patent US20220244245A1, “A METHOD OF PROFILING THE ENERGETIC METABOLISM OF A POPULATION OF CELLS” (INSERM (Institut National de la Santé et de la Recherche …, priority 2019, published 2022)
